Values of other authors, collected in PMC8513935.

Assay: experimental, compiled by the authors from the literature (the ESI cites the sources)
Details: 1,2-Dichloroethane, 25 C

SMILES	log K of transfer, gas to solvent [log10 K]
ClC(Cl)(Cl)Cl	3.04
CCCCN	3.29

Same assay, conditions: 2-Methylpropan-2-ol, 25 C

SMILES	log K of transfer, gas to solvent [log10 K]
ClC(Cl)(Cl)Cl	2.74

Same assay, conditions: Acetonitrile, 25 C

SMILES	log K of transfer, gas to solvent [log10 K]
ClC(Cl)(Cl)Cl	2.68

Same assay, conditions: Benzene, 25 C

log K of transfer, gas to solvent [log10 K]	SMILES
3.17	CCCCN

Same assay, conditions: Butan-1-ol, 25 C

SMILES	log K of transfer, gas to solvent [log10 K]
ClC(Cl)(Cl)Cl	2.84

Same assay, conditions: Butanone, 25 C

SMILES	log K of transfer, gas to solvent [log10 K]
ClC(Cl)(Cl)Cl	3.04

Same assay, conditions: CCl4, 25 C

SMILES	log K of transfer, gas to solvent [log10 K]
ClC(Cl)(Cl)Cl	3.24
CCCCN	3.15

Same assay, conditions: Chlorobenzene, 25 C

log K of transfer, gas to solvent [log10 K]	SMILES
3.06	CCCCN

Same assay, conditions: Chloroform, 25 C

SMILES	log K of transfer, gas to solvent [log10 K]
ClC(Cl)(Cl)Cl	3.25
CCCCN	3.86

Same assay, conditions: Cyclohexane, 25 C

log K of transfer, gas to solvent [log10 K]	SMILES
2.62	CCCCN

Same assay, conditions: Cyclohexanone, 25 C

SMILES	log K of transfer, gas to solvent [log10 K]
ClC(Cl)(Cl)Cl	3.17

Same assay, conditions: Di-n-butyl ether, 25 C

SMILES	log K of transfer, gas to solvent [log10 K]
ClC(Cl)(Cl)Cl	3.05
CCCCN	2.68

Same assay, conditions: Diethyl Ether, 25 C

SMILES	log K of transfer, gas to solvent [log10 K]
ClC(Cl)(Cl)Cl	3.22

Same assay, conditions: Ethanol, 25 C

SMILES	log K of transfer, gas to solvent [log10 K]
ClC(Cl)(Cl)Cl	2.75

Same assay, conditions: Hexadecane, 25 C

SMILES	log K of transfer, gas to solvent [log10 K]
ClC(Cl)(Cl)Cl	2.82
CCCCN	2.62

Same assay, conditions: Hexan-1-ol, 25 C

SMILES	log K of transfer, gas to solvent [log10 K]
ClC(Cl)(Cl)Cl	2.81

Same assay, conditions: Hexane, 25 C

SMILES	log K of transfer, gas to solvent [log10 K]
ClC(Cl)(Cl)Cl	3.03

Same assay, conditions: Methanol, 25 C

SMILES	log K of transfer, gas to solvent [log10 K]
ClC(Cl)(Cl)Cl	2.66

Same assay, conditions: Octan-1-ol, 25 C

SMILES	log K of transfer, gas to solvent [log10 K]
ClC(Cl)(Cl)Cl	2.79
CCCCN	3.61

Same assay, conditions: Propan-1-ol, 25 C

SMILES	log K of transfer, gas to solvent [log10 K]
ClC(Cl)(Cl)Cl	2.75

Same assay, conditions: Propanone, 25 C

SMILES	log K of transfer, gas to solvent [log10 K]
ClC(Cl)(Cl)Cl	3.04

Same assay, conditions: Propionitrile, 25 C

SMILES	log K of transfer, gas to solvent [log10 K]
ClC(Cl)(Cl)Cl	2.86

Same assay, conditions: Tetrahydrofuran, 25 C

SMILES	log K of transfer, gas to solvent [log10 K]
ClC(Cl)(Cl)Cl	3.41

Same assay, conditions: Toluene, 25 C

log K of transfer, gas to solvent [log10 K]	SMILES
3.25	CCCCN

Same assay, conditions: Water, 25 C

SMILES	log K of transfer, gas to solvent [log10 K]
ClC(Cl)(Cl)Cl	-0.06
CCCCN	3.11

Assay: log P octanol/water from commercial databases, averaged (the ESI)
Details: Octanol (wet), 25 C

SMILES	log K of transfer, water to solvent [log10 K]
ClC(Cl)(Cl)Cl	2.83
CCCCN	0.97

Assay: derived by the authors as gas->solvent minus gas->water (a hypothetical dry solvent; the ESI), not a two-phase measurement
Details: 1,2-Dichloroethane, 25 C

SMILES	log K of transfer, water to solvent [log10 K]
ClC(Cl)(Cl)Cl	3.1
CCCCN	0.18

Same assay, conditions: 2-Methylpropan-2-ol, 25 C

SMILES	log K of transfer, water to solvent [log10 K]
ClC(Cl)(Cl)Cl	2.8

Same assay, conditions: Acetone, 25 C

SMILES	log K of transfer, water to solvent [log10 K]
ClC(Cl)(Cl)Cl	3.1

Same assay, conditions: Acetonitrile, 25 C

SMILES	log K of transfer, water to solvent [log10 K]
ClC(Cl)(Cl)Cl	2.74

Same assay, conditions: Benzene, 25 C

log K of transfer, water to solvent [log10 K]	SMILES
0.06	CCCCN

Same assay, conditions: Butan-1-ol, 25 C

SMILES	log K of transfer, water to solvent [log10 K]
ClC(Cl)(Cl)Cl	2.9

Same assay, conditions: Butanone, 25 C

SMILES	log K of transfer, water to solvent [log10 K]
ClC(Cl)(Cl)Cl	3.1

Same assay, conditions: CCl4, 25 C

SMILES	log K of transfer, water to solvent [log10 K]
ClC(Cl)(Cl)Cl	3.3
CCCCN	0.04

Same assay, conditions: Chlorobenzene, 25 C

log K of transfer, water to solvent [log10 K]	SMILES
-0.05	CCCCN

Same assay, conditions: Chloroform, 25 C

SMILES	log K of transfer, water to solvent [log10 K]
ClC(Cl)(Cl)Cl	3.31
CCCCN	0.75

Same assay, conditions: Cyclohexane, 25 C

log K of transfer, water to solvent [log10 K]	SMILES
-0.488	CCCCN

Same assay, conditions: Cyclohexanone, 25 C

SMILES	log K of transfer, water to solvent [log10 K]
ClC(Cl)(Cl)Cl	3.23

Same assay, conditions: Di-n-butyl ether, 25 C

SMILES	log K of transfer, water to solvent [log10 K]
ClC(Cl)(Cl)Cl	3.11
CCCCN	-0.43

Same assay, conditions: Diethyl Ether, 25 C

SMILES	log K of transfer, water to solvent [log10 K]
ClC(Cl)(Cl)Cl	3.28

Same assay, conditions: Ethanol, 25 C

SMILES	log K of transfer, water to solvent [log10 K]
ClC(Cl)(Cl)Cl	2.81

Same assay, conditions: Hexadecane, 25 C

SMILES	log K of transfer, water to solvent [log10 K]
ClC(Cl)(Cl)Cl	2.88
CCCCN	-0.492

Same assay, conditions: Hexan-1-ol, 25 C

SMILES	log K of transfer, water to solvent [log10 K]
ClC(Cl)(Cl)Cl	2.87

Same assay, conditions: Hexane, 25 C

SMILES	log K of transfer, water to solvent [log10 K]
ClC(Cl)(Cl)Cl	3.09

Same assay, conditions: Methanol, 25 C

SMILES	log K of transfer, water to solvent [log10 K]
ClC(Cl)(Cl)Cl	2.72

Same assay, conditions: Octan-1-ol(dry), 25 C

SMILES	log K of transfer, water to solvent [log10 K]
ClC(Cl)(Cl)Cl	2.85
CCCCN	0.5

Same assay, conditions: Propan-1-ol, 25 C

SMILES	log K of transfer, water to solvent [log10 K]
ClC(Cl)(Cl)Cl	2.81

Same assay, conditions: Propionitrile, 25 C

SMILES	log K of transfer, water to solvent [log10 K]
ClC(Cl)(Cl)Cl	2.92

Same assay, conditions: Tetrahydrofuran, 25 C

SMILES	log K of transfer, water to solvent [log10 K]
ClC(Cl)(Cl)Cl	3.47

Same assay, conditions: Toluene, 25 C

log K of transfer, water to solvent [log10 K]	SMILES
0.14	CCCCN
